In US4398029A, “Quinoline carboxylic acid derivatives and process for the preparation” (Kyorin Seiyaku Kabushiki Kaisha, priority 1981, dated 1983):
Converted amounts (≈) assume the structure as drawn. Read-outs that look alike come from different tables or passages of the source.

Experiments:
E. coli ATCC 10536 = assay: Antibacterial activity (MIC), standard agar dilution streak method; type: cell-based, Escherichia coli; details: for MIC: Escherichia coli, ATCC10536, read-out: Minimum inhibitory concentration
Protocol: (§1) The antibacterial activities of the compounds of the present invention were assayed by the standard agar dilution streak method against Gram-positive and Gram-negative bacteria [Chemotherapy, 22, 1126 (1974)].

S. aureus Terajima = assay: as above; type: cell-based, Staphylococcus aureus; details: Staphylococcus aureus; S. aureus Terajima; read-out: Minimum inhibitory concentration
Protocol: as §1

Shigella sonnei IID 969 = assay: microbe, parasite or virus in culture; type: cell-based; details: Shigella sonnei
Protocol: as §1

[1] = system: Bacillus subtilis PCI 219; assay: Antibacterial activity (MIC), standard agar dilution streak method; type: cell-based; details: PCI219; Bacillus subtilis PCI 219; read-out: Minimum inhibitory concentration
Protocol: as §1

[2] = system: Escherichia coli NIHJ JC-2; assay: as above; type: cell-based; details: for MIC: read-out: Minimum inhibitory concentration
Protocol: as §1

[3] = system: Alcaligenes faecalis 0104002; assay: as above; type: cell-based; details: for MIC: read-out: Minimum inhibitory concentration
Protocol: as §1

[4] = system: Yersinia enterocolitica IID 981; assay: as above; type: cell-based; details: read-out: Minimum inhibitory concentration
Protocol: as §1

P. morganii IID 602 = assay: as above; type: cell-based; details: Morganella morganii, IID602, P. morganii IID 602; read-out: Minimum inhibitory concentration
Protocol: as §1

[5] = system: Citrobacter freundii IID 976; assay: as above; type: cell-based; details: read-out: Minimum inhibitory concentration
Protocol: as §1

[6] = system: Serratia marcescens IID 618; assay: as above; type: cell-based; details: for MIC: read-out: Minimum inhibitory concentration
Protocol: as §1

S. epidermidis IID 866 = assay: as above; type: cell-based; details: Staphylococcus epidermidis, IID866, read-out: Minimum inhibitory concentration
Protocol: as §1

[7] = system: Enterobacter cloacae IID 977; assay: as above; type: cell-based; details: read-out: Minimum inhibitory concentration
Protocol: as §1

[8] = system: Klebsiella pneumoniae IFO 3512; assay: as above; type: cell-based; details: read-out: Minimum inhibitory concentration
Protocol: as §1

[9] = system: Staphylococcus aureus 209 p; assay: as above; type: cell-based; details: Staphylococcus aureus 209 p; for MIC: read-out: Minimum inhibitory concentration
Protocol: as §1

[10] = system: Acinetobacter anitratus IID 876; assay: as above; type: cell-based; details: Acinetobacter calcoaceticus, IID876, read-out: Minimum inhibitory concentration
Protocol: as §1

P. mirabilis IID 994 = assay: as above; type: cell-based; details: Proteus mirabilis, IID994; P. mirabilis IID 994; read-out: Minimum inhibitory concentration
Protocol: as §1

[11] = system: Salmonella enteritidis IID 604; assay: as above; type: cell-based; details: Salmonella enterica; Salmonella enteritidis IID 604; read-out: Minimum inhibitory concentration
Protocol: as §1

[12] = system: Pseudomonas aeruginosa V-1; assay: as above; type: cell-based; details: read-out: Minimum inhibitory concentration
Protocol: as §1

P. aeruginosa IFO 12689 = assay: as above; type: cell-based, Pseudomonas aeruginosa; details: Pseudomonas aeruginosa, IFO12689, P. aeruginosa IFO 12689; read-out: Minimum inhibitory concentration
Protocol: as §1

Proteus vulgaris 3167 = assay: as above; type: cell-based; details: read-out: Minimum inhibitory concentration
Protocol: as §1

[13] = IID969, Shigella sonnei IID 969, read-out: Minimum inhibitory concentration
[14] = NIHJJC2, Escherichia coli NIHJ JC-2
[15] = IID981, Yersinia enterocolitica IID 981
[16] = IID976, Citrobacter freundii IID 976
[17] = IID618, Serratia marcescens IID 618
[18] = IID977, Enterobacter cloacae IID 977
[19] = IFO3512, Klebsiella pneumoniae IFO 3512
[20] = Pseudomonas aeruginosa, V1, Pseudomonas aeruginosa V-1
[21] = Alcaligenes faecalis, 0104002, Alcaligenes faecalis 0104002
[22] = Yersinia enterocolitica, IID981, Yersinia enterocolitica IID 981
[23] = Citrobacter freundii, IID976, Citrobacter freundii IID 976
[24] = Serratia marcescens, IID618, Serratia marcescens IID 618
[25] = Klebsiella pneumoniae, IFO3512, Klebsiella pneumoniae IFO 3512
[26] = Proteus vulgaris, 3167, Proteus vulgaris 3167

Structure (SMILES)	MIC (E. coli ATCC 10536) [µg/mL]	MIC (S. aureus Terajima) [µg/mL]	MIC (Shigella sonnei IID 969; [13]) [µg/mL]	MIC [1] [µg/mL]	MIC [2, 14] [µg/mL]	MIC ([3]; Alcaligenes faecalis 0104002) [µg/mL]	MIC [4, 15] [µg/mL]	MIC (P. morganii IID 602) [µg/mL]	MIC [5, 16] [µg/mL]	MIC [6, 17] [µg/mL]	MIC (S. epidermidis IID 866) [µg/mL]	MIC [7, 18] [µg/mL]	MIC [8, 19] [µg/mL]	MIC [9] [µg/mL]	MIC [10] [µg/mL]	MIC (P. mirabilis IID 994) [µg/mL]	MIC [11] [µg/mL]	MIC [12, 20] [µg/mL]	MIC (P. aeruginosa IFO 12689) [µg/mL]	MIC (Proteus vulgaris 3167; Proteus vulgaris 3167) [µg/mL]	also measured
Cl.Cn1cc(C(=O)O)c(=O)c2cc(F)c(N3CCNCC3)c(F)c21 [Example 1, 6,8-Difluoro-1,4-dihydro-1-methyl-4-oxo-7-(1-piperazinyl)quinoline-3-carboxylic acid hydrochloride]	0.1	3.13	≤ 0.05	0.39	≤ 0.05	6.25	0.1	0.2	≤ 0.05	0.1	3.13	0.1	≤ 0.05	3.13	1.56	0.1	0.1	3.13	1.56	–	–
CCCn1cc(C(=O)O)c(=O)c2cc(F)c(N3CCNCC3)c(F)c21.Cl [Example 2, 6,8-Difluoro-1,4-dihydro-4-oxo-7-(1-piperazinyl)-1-n-propylquinoline-3-carboxylic acid hydrochloride]	0.2	3.13	–	0.2	≤ 0.05	1.56	0.39	0.39	0.2	0.39	3.13	0.78	0.1	1.56	1.56	0.1	0.2	12.5	6.25	≤ 0.05	MIC (Shigella sonnei IID 969; IID969, read-out: Minimum inhibitory concentration): 0.1 µg/mL
C=CCn1cc(C(=O)O)c(=O)c2cc(F)c(N3CCNCC3)c(F)c21.Cl [Example 3, 1-Allyl-6,8-difluoro-1,4-dihydro-4-oxo-7-(1-piperazinyl)quinoline-3-carboxylic acid hydrochloride]	0.39	3.13	0.1	0.39	–	3.13	0.39	0.39	0.2	0.39	3.13	0.78	0.1	3.13	3.13	0.2	0.2	12.5	6.25	0.1	–
CN1CCN(c2c(F)cc3c(=O)c(C(=O)O)cn(CCF)c3c2F)CC1.Cl [Example 5, 6,8-Difluoro-1-(2-fluoroethyl)-1,4-dihydro-7-(4-methyl-1-piperazinyl)-4-oxoquinoline-3-carboxylic acid hydrochloride]	0.1	0.78	≤ 0.05	0.1	–	–	–	0.1	–	–	0.78	–	–	0.78	0.39	≤ 0.05	–	–	3.13	–	MIC ([2]; Escherichia coli, NIHJJC2, Escherichia coli NIHJ JC-2): ≤ 0.05 µg/mL; MIC [3, 21]: 0.78 µg/mL; MIC [4, 22]: 0.1 µg/mL; MIC [5, 23]: ≤ 0.05 µg/mL; MIC [6, 24]: 0.1 µg/mL; MIC ([7]; Enterobacter cloacae, IID977, Enterobacter cloacae IID 977): 0.1 µg/mL; MIC [8, 25]: ≤ 0.05 µg/mL; MIC (Proteus vulgaris 3167; [26]): ≤ 0.05 µg/mL; MIC ([12]; V1, Pseudomonas aeruginosa V-1): 3.13 µg/mL
CCn1cc(C(=O)O)c(=O)c2cc(F)c(N3CCC(O)CC3)c(F)c21 [Example 9, 1-Ethyl-6,8-difluoro-1,4-dihydro-7-(4-hydroxy-1-piperidinyl)-4-oxoquinoline-3-carboxylic acid]	–	0.2 (≈ 0.568 µM)	0.2 (≈ 0.568 µM)	≤ 0.05	–	–	–	0.78 (≈ 2.21 µM)	–	–	0.39 (≈ 1.11 µM)	–	–	–	1.56 (≈ 4.43 µM)	–	1.56 (≈ 4.43 µM)	6.25 (≈ 17.7 µM)	12.5 (≈ 35.5 µM)	–	Minimum inhibitory concentration (E. coli ATCC 10536): 0.20 µg/mL (≈ 0.568 µM); Minimum inhibitory concentration ([2]; Escherichia coli NIHJ JC-2): 0.20 µg/mL (≈ 0.568 µM); Minimum inhibitory concentration ([3]; Alcaligenes faecalis 0104002): 1.56 µg/mL (≈ 4.43 µM); MIC [4, 22]: 0.78 µg/mL (≈ 2.21 µM); MIC [5, 23]: 0.78 µg/mL (≈ 2.21 µM); Minimum inhibitory concentration ([6]; Serratia marcescens IID 618): 1.56 µg/mL (≈ 4.43 µM); MIC [8, 25]: ≤ 0.05 µg/mL; Minimum inhibitory concentration [9]: 0.20 µg/mL (≈ 0.568 µM); MIC (Proteus vulgaris 3167; [26]): ≤ 0.05 µg/mL
CCn1cc(C(=O)O)c(=O)c2cc(F)c(N3CCCC(O)C3)c(F)c21 (stereo not drawn) [Example 10, 1-Ethyl-6,8-difluoro-1,4-dihydro-7-(3-hydroxy-1-piperidinyl)-4-oxoquinoline-3-carboxylic acid]	0.78 (≈ 2.21 µM)	–	0.78 (≈ 2.21 µM)	≤ 0.05	–	–	–	1.56 (≈ 4.43 µM)	–	–	0.78 (≈ 2.21 µM)	6.25 (≈ 17.7 µM)	–	0.2 (≈ 0.568 µM)	1.56 (≈ 4.43 µM)	–	6.25 (≈ 17.7 µM)	–	25 (≈ 71 µM)	–	MIC [3, 21]: 3.13 µg/mL (≈ 8.88 µM); MIC [4, 22]: 1.56 µg/mL (≈ 4.43 µM); MIC [5, 23]: 1.56 µg/mL (≈ 4.43 µM); MIC [6, 24]: 3.13 µg/mL (≈ 8.88 µM); MIC [8, 25]: 0.1 µg/mL (≈ 0.284 µM); MIC (Proteus vulgaris 3167; [26]): 0.1 µg/mL (≈ 0.284 µM); MIC ([12]; V1, Pseudomonas aeruginosa V-1): 25 µg/mL (≈ 71 µM)
Cl.O=C(O)c1cn(CCO)c2c(F)c(N3CCNCC3)c(F)cc2c1=O [Example 14, 6,8-Difluoro-1,4-dihydro-1-(2-hydroxyethyl)-4-oxo-7-(1-piperazinyl)-quinoline-3-carboxylic acid hydrochloride]	0.39	25	0.2	3.13	0.39	100	0.39	–	0.2	6.25	12.5	0.39	0.39	12.5	25	–	0.39	–	12.5	0.39	–
